From ChEMBL document CHEMBL3085759, “Structure-activity relationship (SAR) and preliminary mode of action studies of 3-substituted benzylthioquinolinium iodide as anti-opportunistic infection agents” (Eur J Med Chem, 2013)

Key:
Staphylococcus aureus [1] = experiment: Antimicrobial activity against Staphylococcus aureus ATCC 29213 by Alamar blue method; type: functional, organism-based; conditions: Staphylococcus aureus, ATCC 29213; for IC50: read-out: IC50
Aspergillus fumigatus = experiment: Antimicrobial activity against Aspergillus fumigatus ATCC 204305 by Alamar blue method; type: functional, organism-based
Pichia kudriavzevii = experiment: Antimicrobial activity against Candida krusei ATCC 6258 by Alamar blue method; type: functional, organism-based
Candida albicans = experiment: Antimicrobial activity against Candida albicans ATCC 90028 by Alamar blue method; type: functional, organism-based
Staphylococcus aureus [2] = experiment: Antimicrobial activity against methicillin-resistant Staphylococcus aureus ATCC 33591 by Alamar blue method; type: functional, organism-based
[3] = test system: Mycobacterium intracellulare; experiment: Antimicrobial activity against Mycobacterium intracellulare ATCC 23068 by Alamar blue method; type: functional, organism-based
Nakaseomyces glabratus = experiment: Antimicrobial activity against Candida glabrata by Alamar blue method; type: functional, organism-based
Vero = experiment: Cytotoxicity against african green monkey Vero cells at 10 ug/ml after 48 hrs by Neutral Red dye assay; type: cell-based; conditions: chlorocebus sabaeus
Cryptococcus neoformans = experiment: Antimicrobial activity against Cryptococcus neoformans ATCC 90113 by Alamar blue method; type: functional, organism-based

Row | Compound | MBC (Staphylococcus aureus [1]) [µg/mL] | MIC (Staphylococcus aureus [1]) [µg/mL] | IC50 (Staphylococcus aureus [1]) [µg/mL] | IC50 (Aspergillus fumigatus) [µg/mL] | MFC (Aspergillus fumigatus) [µg/mL] | MIC (Aspergillus fumigatus) [µg/mL] | IC50 (Pichia kudriavzevii) [µg/mL] | MFC (Pichia kudriavzevii) [µg/mL] | MIC (Pichia kudriavzevii) [µg/mL] | IC50 (Candida albicans) [µg/mL] | MFC (Candida albicans) [µg/mL] | MIC (Candida albicans) [µg/mL] | IC50 (Staphylococcus aureus [2]) [µg/mL] | MBC (Staphylococcus aureus [2]) [µg/mL] | MIC (Staphylococcus aureus [2]) [µg/mL] | IC50 [3] [µg/mL] | MBC [3] [µg/mL] | MIC [3] [µg/mL] | IC50 (Nakaseomyces glabratus) [µg/mL] | MFC (Nakaseomyces glabratus) [µg/mL] | other results
1 | N#Cc1ccccc1CSc1cc2ccccc2[n+](CCCCCC2CCCCC2)c1.[I-] | 5 | 1.3 | 0.68 | 11 | 20 | 20 | 1.5 | 5 | 5 | 1.6 | 10 | 5 | 0.97 | 10 | 2.5 | 6.8 | 10 | 10 | > 20 | > 20 | MIC (Nakaseomyces glabratus): > 20 µg/mL; Activity (Vero): Non-toxic; IC50 (Cryptococcus neoformans): 0.5 µg/mL; MFC (Cryptococcus neoformans): 2.5 µg/mL; MIC (Cryptococcus neoformans): 1.3 µg/mL
2 | FC(F)(F)c1cccc(CSc2cc3ccccc3[n+](CCCCCC3CCCCC3)c2)c1.[I-] | 2.5 | 0.63 | 0.4 | 1.9 | 2.5 | 2.5 | 1.4 | 2.5 | 2.5 | 1.2 | 2.5 | 2.5 | 0.56 | 2.5 | 1.3 | 7.2 | 10 | 10 | 2.8 | 5 | MIC (Nakaseomyces glabratus): 5 µg/mL; Activity (Vero): Non-toxic; IC50 (Cryptococcus neoformans): 0.28 µg/mL; MFC (Cryptococcus neoformans): 0.63 µg/mL; MIC (Cryptococcus neoformans): 0.63 µg/mL
3 | Brc1ccc(CSc2cc3ccccc3[n+](CCCCCC3CCCCC3)c2)cc1.[I-] | 1.3 | 0.63 | 0.4 | 2.4 | 5 | 5 | 0.49 | 0.63 | 0.63 | 0.5 | 2.5 | 1.3 | 0.4 | 1.3 | 0.63 | 6.1 | 10 | 10 | 1.6 | 5 | MIC (Nakaseomyces glabratus): 5 µg/mL; Activity (Vero): Non-toxic; IC50 (Cryptococcus neoformans): 0.22 µg/mL; MFC (Cryptococcus neoformans): 0.63 µg/mL; MIC (Cryptococcus neoformans): 0.63 µg/mL
4 | Fc1ccc(Oc2cc3ccccc3[n+](CCCCCC3CCCCC3)c2)cc1.[I-] | > 20 | 20 | 14 | > 20 | > 20 | > 20 | > 20 | > 20 | > 20 | > 20 | > 20 | > 20 | 14 | > 20 | > 20 | 20 | 20 | 20 | > 20 | > 20 | MIC (Nakaseomyces glabratus): > 20 µg/mL; IC50 (Cryptococcus neoformans): 8.62 µg/mL; MFC (Cryptococcus neoformans): 10 µg/mL; MIC (Cryptococcus neoformans): 10 µg/mL
5 | Fc1ccccc1CSc1cc2ccccc2[n+](CCCCCC2CCCCC2)c1.[I-] | 2.5 | 1.3 | 0.73 | 6.5 | 20 | 20 | 1.4 | 2.5 | 2.5 | 2.7 | 5 | 5 | 0.74 | 2.5 | 1.3 | 16 | 20 | 20 | 6.3 | 20 | MIC (Nakaseomyces glabratus): 20 µg/mL; Activity (Vero): Non-toxic; IC50 (Cryptococcus neoformans): 0.63 µg/mL; MFC (Cryptococcus neoformans): 1.3 µg/mL; MIC (Cryptococcus neoformans): 1.3 µg/mL
6 | Fc1cccc(CSc2cc3ccccc3[n+](CCCCCC3CCCCC3)c2)c1.[I-] | 1.3 | 0.63 | 0.44 | 5.6 | 20 | 10 | 0.49 | 1.3 | 1.3 | 1.8 | 5 | 5 | 0.37 | 1.3 | 0.63 | 6.5 | 10 | 10 | 2.6 | 5 | MIC (Nakaseomyces glabratus): 5 µg/mL; Activity (Vero): Non-toxic; MFC (Cryptococcus neoformans): 0.63 µg/mL; MIC (Cryptococcus neoformans): 0.63 µg/mL
7 | Cc1cc(C)c(CSc2cc3ccccc3[n+](CCCCCC3CCCCC3)c2)c(C)c1.[I-] | 1.3 | 0.63 | 0.34 | 2.3 | 5 | 5 | 0.44 | 0.63 | 0.63 | > 20 | > 20 | > 20 | 0.23 | 0.63 | 0.63 | 2.9 | 5 | 5 | 1.7 | 5 | MIC (Nakaseomyces glabratus): 5 µg/mL; Activity (Vero): Non-toxic; IC50 (Cryptococcus neoformans): 0.32 µg/mL; MFC (Cryptococcus neoformans): 0.63 µg/mL; MIC (Cryptococcus neoformans): 0.63 µg/mL
